{"source": "patent US20250099485A1", "about": "“COMPOSITIONS FOR PROMOTING HAIR GROWTH” (ESTETRA SRL, priority 2021, published 2025)", "key": {"[1]": {"system": "primary human epidermal keratinocytes", "assay": "Keratinocyte scratch assay", "format": "cell-based", "details": "10^−10M and 10^−7M, culture condition with 15% HKGS, compared with E2", "procedure": "Human skin was transferred to the laboratory in holding media (DMEM containing 4% penicillin-streptomycin and Amphotericin B solution) within 30 minutes of collection. Once defatted, the skin was rinsed in HBSS with 4% PSA followed by DPBS without antibiotics, then cut into thin strips and floated on 0.2% Dispase II in DPBS overnight at 4° C., followed by manual separation of the epidermis from the dermis. Primary human epidermal keratinocytes and primary human dermal fibroblasts were then isolated.\nConfluent wells of both primary keratinocytes and fibroblasts were subjected to a highly validated scratch wounding procedure (using a 1 mL sterile filter tip). Post-scratching, cells were rinsed with DPBS and cell-specific media containing treatments added to each well. Cells were imaged on a ptychographic live cell imaging platform (Livecyte 2TM, Phasefocus) for 24-48 hours. Automated tracking of individual unlabeled cells will be combined with 3D cell measurements to quantify a range of wound-relevant cell parameters including scratch closure rate.\nDose range finding experiments were conducted with E4 (10^−10M to 10^−6M) and E2 with and without Mitomycin C (MMC, to inhibit proliferation) using vehicle as negative controls."}, "[2]": {"system": "hair matrix keratinocytes", "assay": "Hair follicle organ culture: hair matrix keratinocytes proliferation and apoptosis (Ki-67/TUNEL)", "format": "cell-based, human", "details": "vs vehicle", "procedure": "12-44 full-length frontotemporal hair follicles (HF) were obtained from four human female donors >50 years old. Donors were caucasian female subjects […], respectively (Donor 1: 12 temporal anagen HFs; Donor 2: 29; Donor 3: 44; Donor 4: 32). After microdissection from skin as described (Edelkamp et al., Methods Mol Biol, 2020, 2154:105-119; and Langan et al., Exp Dermatol, 2015, December; 24(12):903-1), HFs were placed in adequate culture medium and allowed a 24 h rest period to allow them to recover from the trauma of microdissection. Test substance (either vehicle (0.3% EtOH) or E4 at concentrations of 30 μM, 3 μM or 300 nM) was added to the medium at the end of the 24 h. Total culturing time was 5-7 days depending on the studied parameters and the experimental question. The experimental design for the hair follicle organ culture experiment is depicted in FIG. 12. Longer term culture experiments may be used to analyze the capacity to delay the onset of catagen.\nGerminative hair matrix keratinocytes proliferate mostly during anagen. […] Apoptosis of hair matrix keratinocytes is used as an additional indicator of anagen/catagen transition.\nProliferation was assessed by quantification of the percentage of hair matrix keratinocytes in a clearly specified area (germinative hair matrix keratinocytes, below the Auber's line) that were positive for the proliferation marker Ki67 (or another proliferation marker such as BrdU or EdU), whereas apoptosis was assessed using TUNEL (TdT-mediated dUTP-biotin nick-end labelling) immunofluorescence (or another apoptosis marker such as activated caspase-3) in the same keratinocyte population (below the Auber's line) and in the precortical hair matrix keratincoytes (above the Auber's line) (Langan et al., Exp Dermatol 2015) (FIG. 13)."}, "[3]": {"system": "mouse lymphoma cell line L5178Y TK^+/−", "assay": "Generation of reactive oxygen species (ROS)", "format": "cell-based", "details": "up to 3000 μM, 3 h exposure, vs vehicle control", "procedure": "The objective of the study was to investigate the generation of reactive oxygen species (ROS) induced by the test item, estetrol (E4), in a mouse lymphoma cell line L5178Y TK^+/−.\nL5178Y TK^+/− cells in logarithmic phase of growth were plated in black 96 well cell culture plates at 1×10^4 cells in 90 μL of cell culture media. Controls and test item in triplicate were applied to the cells as a 10× concentrate in 10 μL of a 10% ethanol solution in PBS (final concentration of ethanol on plate was 1%). Cells were incubated for 3 hours at 37° C., 5% CO2, and the generation of ROS was evaluated by fluorescence with a ROS reagent: the ROS reagent was freshly prepared by dissolving one ampoule of reagent (50 μg) in 70 μL DMSO and further diluting this with 2.1 mL of pre-warmed PBS. 10 μL of ROS reagent was added to each well and the plate were shaken for 30 seconds in the dark. The plates were incubated approximately at 37° C., 5% CO2 for 1 h 30 min and fluorescence was read on a plate scanner with excitation at 492 nm and emission at 520 nm."}}}
{"smiles": "C[C@]12CC[C@@H]3c4ccc(O)cc4CC[C@H]3[C@@H]1[C@@H](O)[C@@H](O)[C@@H]2O", "note": "[E4, 1,3,5 (10)-estratrien-3,15alpha,16alpha,17beta-tetrol]", "values": [{"measurement": "impact on keratinocyte migration, scratch assay", "setting": "[1]", "result": "seems higher than the impact of E2"}, {"measurement": "hair matrix keratinocytes apoptosis (TUNEL)", "setting": "[2]; 300 nM, 3 μM, 30 μM", "result": "without affecting"}, {"measurement": "increased hair matrix keratinocytes proliferation (Ki-67)", "setting": "[2]; 300 nM", "result": "tendentially"}, {"measurement": "increased hair matrix keratinocytes proliferation (Ki-67)", "setting": "[2]; 3 μM", "result": "significantly"}, {"measurement": "increased hair matrix keratinocytes proliferation (Ki-67)", "setting": "[2]; 30 μM", "result": "tendentially"}, {"measurement": "levels of ROS", "setting": "[3]", "result": "dose-dependent decrease"}]}
